Experimental data as given in patent publication US20080139638A1, “METHOD OF INCREASING GROWTH HORMONE SECRETION” (priority 2006, published 2008).
Entries after “also recorded” stand apart in the source; their conditions may differ. Read-outs that look alike come from different tables or passages of the source.

Columns and labels:
growth hormone release = conditions: cited from earlier work
growth hormone [1] = conditions: 5.0 mg oral 60 minutes prior to bicycle exercise at 70% VO2max; cited from earlier work
growth hormone secretion = experiment: Serum growth hormone (ELISA/EIA) after oral melatonin supplementation 60 min before a single bout of resistance exercise (leg press); assay type: in vivo, human (healthy males)
Excerpt: Thirty, healthy males who had partaken in regular resistance training for at least one year prior to the study were selected [n=30(22.72±3.28 years, 180.94±6.24 cm in height, and 82.08±9.18 kg in weight)] served as participants in the study. All of the participants passed a mandatory medical screening and were considered either as low or moderate risk or with no contradictions to exercise as outline by the American College of Sports Medicine (ACSM). Furthermore, the participants had not consumed any nutritional supplements, with the exclusion of vitamins, during a two month period prior the experiment.
Participants were matched by relative strength level (strength/body weight) and then randomly assigned to one of three different protocols. The supplement protocol consisted of a double-blind with groups receiving either 0.5 mg or 5.0 if melatonin (N-Acetyl-5-methoxytryptamine) or 1.0 mg of dextrose as a placebo. Participants were allowed a light breakfast at 8:00 am, wherein they were asked to record the consumed items, and then were required to fast until 2 pm. Seventy-five minutes prior to each exercise session, (12:30 pm), an intravenous cannula was inserted into a foreman vein. At 60 minutes prior to the exercise session, a baseline blood sample was taken and the participant orally received a supplement of placebo according top that outlined above. During the 60 minutes prior to exercise, the participants were required to rest in a supine position and blood samples were taken every 15 minutes up to the initiation of the resistance exercise. The leg press exercise consisted of 7 sets of 7 slow repetitions at 85% of the weight of the respective participant's one repetition maximum. Each set was preformed over the course of 30 seconds followed by 150 seconds of rest. The entire resistance exercise session was 21 minutes in duration.
Venous blood samples were obtained into 10 ml vacutainer tubes via a 20 gauge intravenous catheter inserted into a foreman vein after the subcutaneous injection of a topical anesthetic (2% Xylocaine). Following the five hour fast, blood samples were obtained at 15-minute intervals commencing 60 minutes prior to the resistance exercise session and then at 15-minute intervals for 120 minutes following the resistance exercise session. Blood samples were allowed to stand for 10 minutes at room temperature and then centrifuged at 2,400 rpm for 10 minutes. The serum was then separated and stored at (−)20° C. until analysis.
Using enzyme-linked immunosorbent assays (ELISA), and enzyme-immunosorbent assays (EIA), serum samples were assayed for growth hormone (Diagnostics Systems Laboratories, Webster, Tex.) using a Wallac Victor-1420 microplate reader from Perkin-Elmer Life Sciences. Boston, Mass. at either 450 or 405 nm respectively. An ultra-sensitive assay with a lower detection limit of 0.66 pg/ml was used to determine the levels of growth hormone without any detectable interference of circulation glycoproteins, GH-dependent peptide hormones, or growth hormone binding protein.
Statistical analyses were performed using factorial analysis of variance (ANOVA) with repeated measures for each criterion value. Pairwise comparisons were used to differentiate significant differences among the three groups. All statistical procedures were performed using SPSS 11.0 software and a probability level of <0.05 was adopted throughout.
Short half-life hormones which are highly sensitive to diurnal variations, such as growth hormone, display great variability in the baseline values as was observed. As such, peak serum hormone responses before and after resistance exercise were subtracted from the baseline values of each participant in order to determine the increase in the growth hormone resulting from the treatments.

growth hormone [2] = conditions: no exercise, cited from earlier work

## COc1ccc2[nH]cc(CCNC(C)=O)c2c1 [melatonin, N-Acetyl-5-methoxytryptamine]
Growth hormone release; 0.4 mg/kg intravenous
  effect on basal growth hormone levels: have been shown to have an effect
Growth hormone release; 1 g oral
  effect on basal growth hormone levels: have been shown to have an effect
Growth hormone release; small doses, less than 2 mg, oral
  effect on the 24-hr profile of growth hormone concentration: have not be shown to affect
Growth hormone [1]
  growth hormone compared to placebo, area under the curve: significant increases
  time of growth hormone peak following exercise: 30 min
Growth hormone secretion; 0.5 mg melatonin oral 60 min prior to exercise, post-exercise period
  fold increase in serum growth hormone relative to placebo: approximately 3.16 fold
Growth hormone secretion; 0.5 mg melatonin oral, post-workout period
  serum growth hormone levels compared to placebo (in words): statistically significant (p=0.045) elevations
Growth hormone secretion; 0.5 mg melatonin oral, pre-exercise period
  serum growth hormone levels compared to placebo (in words): no statistical difference; also recorded: no significant increase
Growth hormone secretion; 0.5 mg vs 5.0 mg melatonin oral, post-exercise
  increase in growth hormone of the 0.5 mg group compared to the 5.0 mg group (in words): significantly greater increase
Growth hormone secretion; 5.0 mg melatonin oral, post-workout period
  serum growth hormone levels compared to placebo (in words): statistically significant (p=0.045) elevations
Growth hormone secretion; 5.0 mg melatonin oral, pre-exercise period
  serum growth hormone levels compared to placebo (in words): increased relative to placebo
Growth hormone secretion; 5.0 mg melatonin oral, pre-exercise period, peak standardized to baseline
  fold increase in serum growth hormone relative to placebo: ~2.35 fold
Growth hormone [2]; 0.5 mg oral
  plasma growth hormone concentrations: significant increase
  time of peak plasma growth hormone values: 60 min
Growth hormone [2]; 5.0 mg oral
  plasma growth hormone concentrations: significant increase
  time of peak plasma growth hormone values: 60 min
